A word on the IC50: it is the point on the concentration scale where inhibition reaches its midpoint.

In assay [1] the test system is BGC-823. The assay is described as follows: Cytotoxicity in human BGC823 cells assessed as reduction in cell viability incubated for 72 hrs by MTT assay. The class given is functional, cell-based. The conditions noted are these: BGC-823, 72 h. A general note: Formazan colour is commonly taken as a measure of viable cells.
Assay [2] has as its system Bel-7402. The assay can be described thus: Cytotoxicity in human Bel7402 cells assessed as reduction in cell viability incubated for 72 hrs by MTT assay. The conditions noted are these: Bel-7402, 72 h. It is filed as functional, cell-based.
Assay [3] concerns HeLa. The assay is described as follows: Cytotoxicity in human HeLa cells assessed as reduction in cell viability incubated for 72 hrs by MTT assay. The class given is functional, cell-based.
Assay [4] concerns HT-29. The assay is described as follows: Cytotoxicity in human HT-29 cells assessed as reduction in cell viability incubated for 72 hrs by MTT assay. It is filed as functional, cell-based. To be noted: HT-29, 72 h.
Assay [5] relates to HCT-116. The assay is described as follows: Cytotoxicity in human HCT116 cells assessed as reduction in cell viability incubated for 96 hrs by SRB assay. To be noted: HCT-116, 96 h. The class given is functional, cell-based.
The subject of assay [6] is HCT-8. The assay is described as follows: Cytotoxicity in human HCT8 cells assessed as reduction in cell viability incubated for 96 hrs by SRB assay. It is filed as functional, cell-based. The conditions noted are these: HCT-8, 96 h. A general note: The SRB assay estimates cell density from bound dye.
The subject of assay [7] is HT-29. The assay is described as follows: Cytotoxicity in human HT-29 cells assessed as reduction in cell viability incubated for 96 hrs by SRB assay. It is filed as functional, cell-based. To be noted: HT-29, 96 h.
For assay [8], the system named is CT26. The assay is described as follows: Cytotoxicity in mouse CT26 cells assessed as reduction in cell viability incubated for 96 hrs by SRB assay. It is filed as functional, cell-based. The conditions noted are these: CT26, 96 h.
Assay [9] deals with PC-3. The assay can be described thus: Cytotoxicity in human PC3 cells assessed as reduction in cell viability incubated for 96 hrs by SRB assay. The conditions noted are these: PC-3, 96 h. The class given is functional, cell-based.
Assay [10] concerns DU-145. The assay can be described thus: Cytotoxicity in human DU145 cells assessed as reduction in cell viability incubated for 96 hrs by SRB assay. The class given is functional, cell-based. To be noted: DU-145, 96 h.
The test system of assay [11] is MDA-MB-231. The assay is described as follows: Cytotoxicity in human MDA-MB-231 cells assessed as reduction in cell viability incubated for 96 hrs by SRB assay. It is filed as functional, cell-based. The conditions noted are these: MDA-MB-231, 96 h.
The subject of assay [12] is 4T1. The assay can be described thus: Cytotoxicity in mouse 4T1 cells assessed as reduction in cell viability incubated for 96 hrs by SRB assay. It is filed as functional, cell-based. To be noted: 4T1, 96 h.
In assay [13] the test system is HepG2. The assay can be described thus: Cytotoxicity in human HepG2 cells assessed as reduction in cell viability incubated for 24 hrs by MTT assay. The conditions noted are these: HepG2, 24 h. It is filed as functional, cell-based.
The test system of assay [14] is HeLa. The assay can be described thus: Cytotoxicity in human HeLa cells assessed as reduction in cell viability incubated for 24 hrs by MTT assay. It is filed as functional, cell-based.
Assay [15] is described as follows: Cytotoxicity in human HELF cells assessed as reduction in cell viability incubated for 24 hrs by MTT assay. The class given is cell-based.

`Cc1nc(C)c(COC(=O)[C@]23CCC(C)(C)C[C@H]2C2=CC[C@@H]4[C@@]5(C)CC[C@H](O)C(C)(C)[C@@H]5CC[C@@]4(C)[C@]2(C)CC3)nc1C`: the IC50 in assay [1] was above 30 µM; in assay [2], 6.36 µM; in [3], 28.7 µM; in assay [4] it was 29.8 µM.
As to `COC(=O)[C@@]1(C)CC[C@]2(C)CC[C@]3(C)C(=CC(=O)[C@@H]4[C@@]5(C)Cc6cn(C(=O)C7CCCNC7)nc6C(C)(C)[C@@H]5CC[C@]43C)[C@H]2C1` (stereo partly drawn), the IC50 in assay [5] was found to be 22 µM; in [6], 23.8 µM; in [7] it was 21.8 µM; in [8], 23.7 µM; in assay [9] it was 23.1 µM; in assay [10] it was 21.9 µM. For the same compound, the IC50 in [11] turned out to be 24 µM; in assay [12] it was 9.68 µM.
As to `COC(=O)[C@@]1(C)CC[C@]2(C)CC[C@]3(C)C(=CC(=O)[C@@H]4[C@@]5(C)Cc6cn(C(=O)CCCC7CCNCC7)nc6C(C)(C)[C@@H]5CC[C@]43C)[C@H]2C1`, the IC50 worked out at 6.99 µM in [5]; 11.7 µM in assay [6]; 8.76 µM in assay [7]; 8.08 µM in assay [8]; 5.19 µM in assay [9]; 7.54 µM in assay [10]. In addition, the IC50 in assay [11] was determined as 9.76 µM; in assay [12] it was 6.09 µM.
As to `C[C@H]1[C@H](C)CC[C@]2(C(=O)NCCCCCCCCN)CC[C@]3(C)C(=CC[C@@H]4[C@@]5(C)CC[C@H](O)C(C)(C)[C@@H]5CC[C@]43C)[C@H]12`, the IC50 was 26.7 µM in [13], 16.9 µM in assay [14] and 39.4 µM in assay [15].
On to `COC(=O)[C@@]1(C)CC[C@]2(C)CC[C@]3(C)C(=CC(=O)[C@@H]4[C@@]5(C)Cc6cn(OC(C)=O)nc6C(C)(C)[C@@H]5CC[C@]43C)[C@H]2C1`, for which the IC50 in assay [5] is 14.1 µM; in assay [6], 29.2 µM; in assay [7], 31 µM; in [8], 33 µM; in assay [9], 25.4 µM; in assay [10] it was 36.7 µM. Also, the values for the IC50 in assay [11] and in assay [12] were 32.3 µM and 20.1 µM, respectively.
For the compound `COC(=O)[C@@]1(C)CC[C@]2(C)CC[C@]3(C)C(=CC(=O)[C@@H]4[C@@]5(C)Cc6cn(C(=O)CC7CCNCC7)nc6C(C)(C)[C@@H]5CC[C@]43C)[C@H]2C1`, the IC50 in assay [5] was found to be 12.1 µM; in assay [6] it was 8.98 µM; in [7], 12.1 µM; in assay [8] it was 9.87 µM; in assay [9], 11.7 µM; in assay [10], 13.3 µM. The IC50 in assay [11] worked out at 10.1 µM; in assay [12], 5.8 µM.
In the case of `COC(=O)[C@@]1(C)CC[C@]2(C)CC[C@]3(C)C(=CC(=O)[C@@H]4[C@@]5(C)Cc6cn(C(=O)C7CCNCC7)nc6C(C)(C)[C@@H]5CC[C@]43C)[C@H]2C1`, the IC50 is 23.2 µM in assay [5]; 22.3 µM in assay [6]; 25.2 µM in [7]; 21.4 µM in [8]; 22.4 µM in [9]; 20.8 µM in assay [10]. For the same compound, the figures for the IC50 in [11] and in assay [12] were 19.2 µM and 5.34 µM, respectively.
As to `COC(=O)[C@@]1(C)CC[C@]2(C)CC[C@]3(C)C(=CC(=O)[C@@H]4[C@@]5(C)Cc6cn(C(=O)CCC7CCNCC7)nc6C(C)(C)[C@@H]5CC[C@]43C)[C@H]2C1`, the IC50 in [5] amounted to 6.36 µM; in assay [6] it was 13.6 µM; in assay [7], 12.5 µM; in assay [8], 13 µM; in assay [9], 12 µM; in [10] it was 13.9 µM. Further, the IC50 was 9.56 µM in assay [11] and 5.77 µM in assay [12].
On to `CC(=O)O[C@H]1CC[C@]2(C)[C@H]3CC=C4[C@@H]5[C@@H](C)[C@H](C)CC[C@]5(C(=O)NCCCCCCCCN)CC[C@@]4(C)[C@]3(C)CC[C@H]2C1(C)C`, for which the results for the IC50 in [13], in assay [14] and in assay [15] were 17.3 µM, 8.6 µM and 36.1 µM, respectively.

The values above are taken from ChEMBL document CHEMBL4270495, “Oleanane-, ursane-, and quinone methide friedelane-type triterpenoid derivatives: Recent advances in cancer treatment” (Eur J Med Chem, 2017).
